# According to patent publication US20240316008A1, “TREATMENT OF SYSTEMIC IMMUNE ACTIVATION SYNDROMES” (TRANQUIS THERAPEUTICS, INC., priority 2020, published 2024):
# Test system: 12 human primary cell-based systems
# Assay: Eurofins BioMAP Diversity PLUS panel
# [1] = BioMAP report, profile at 6.7 μM, 2.2 μM, 740 nM
# [2] = profile at 6.7 μM, 2.2 μM, 740 nM
# [3] = profile at 20 μM, 6.7 μM, 2.2 μM, 740 nM
structure (smiles),measurement,setting,value
"CC(C)(C)c1ccc(-c2nc3ccccc3[nH]2)cc1 [TQS-168, 2-(4-tert-butylphenyl)-1H-benzimidazole]","decrease in sIgG, sIL-17F, sTNFα from B and T cells",6.7 μM,greatest decrease
same,cytotoxicity to endothelial cells,20 μM,cytotoxic
same,highest nontoxic concentration tested,BioMAP Diversity PLUS panel,6.7 µM
same,tissue remodeling activity MMP-1,[1],increased
same,tissue remodeling activity αSMA,[1],decreased
same,activity at non-cytotoxic concentrations,[2],active
same,"immune markers sIgG, sIL-17-F, sTNFα (from B and T cells, not monocytes)",[2],decreased
same,"inflammatory markers sPGE2 (from monocytes), IL-8",[2],decreased
same,"proliferation of endothelial cells, T cells, B cells & fibroblasts",[2],anti-proliferative
same,sIL-6,[2],increased
same,"tissue remodeling markers MMP1, alpha-SMA",[2],modulated
same,VCAM-1,[3],increased
same,"immune markers sIgG, sIL-17A, sIL-17F, sIL-2, sTNFα, sIL-6 (from B and T cells, not monocytes)",[3],decreased
